Experimental data published in ChEMBL document CHEMBL4765419, “Design, synthesis and bioactivity evaluation of novel arylalkene-amide derivatives as dual-target antifungal inhibitors” (Eur J Med Chem, 2020).
Values belong to the molecule of their own block, whether it stands above or below them. Active and inactive are the calls of the source. The calls are words filed in the database; no cut-off is given here.

What was measured:
[1] = system: Candida albicans; assay: Antifungal activity against Candida albicans assessed as inhibition of microbial growth by two fold broth microdilution method; format: functional
[2] = system: Pichia kudriavzevii; assay: Antifungal activity against Candida krusei assessed as inhibition of microbial growth by two fold broth microdilution method; format: functional
[3] = system: Nakaseomyces glabratus; assay: Antifungal activity against Candida glabrata assessed as inhibition of microbial growth by two fold broth microdilution method; format: functional
[4] = system: Aspergillus fumigatus; assay: Antifungal activity against Aspergillus fumigatus assessed as inhibition of microbial growth by two fold broth microdilution method; format: functional
[5] = system: Candida tropicalis; assay: Antifungal activity against Candida tropicalis assessed as inhibition of microbial growth by two fold broth microdilution method; format: functional
[6] = system: Candida albicans; assay: Antifungal activity against fluconazole-resistant Candida albicans 17# assessed as inhibition of microbial growth by two fold broth microdilution method; format: functional
[7] = system: Candida albicans; assay: Antifungal activity against fluconazole-resistant Candida albicans CaR assessed as inhibition of microbial growth by two fold broth microdilution method; format: functional
[8] = system: Candida albicans; assay: Antifungal activity against fluconazole-resistant Candida albicans 632 assessed as inhibition of microbial growth by two fold broth microdilution method; format: functional
[9] = system: Candida albicans; assay: Antifungal activity against fluconazole-resistant Candida albicans 901 assessed as inhibition of microbial growth by two fold broth microdilution method; format: functional
[10] = system: Candida albicans; assay: Antifungal activity against fluconazole-resistant Candida albicans 904 assessed as inhibition of microbial growth by two fold broth microdilution method; format: functional
[11] = system: Candida albicans; assay: Antifungal activity against Candida albicans ATCC SC5314 assessed as decrease in fungal cell density by polarizing microscopy; format: functional, organism-based
[12] = system: Candida albicans SC5314; assay: Inhibition of SE/CYP51 in Candida albicans ATCC SC5314 assessed as ergosterol level at 4 ug/ml incubated for 16 hrs by LC/MS analysis (reference value: 79.43 %); parameters: scale not given: the % may be the effect or the level left; settings: dose 4.0 µg/ml
[13] = system: Candida albicans SC5314; assay: Inhibition of SE/CYP51 in Candida albicans ATCC SC5314 assessed as lanosterol level at 4 ug/ml incubated for 16 hrs by LC/MS analysis (reference value: 6.62 %); parameters: scale not given: the % may be the effect or the level left; settings: dose 4.0 µg/ml
[14] = system: Candida albicans SC5314; assay: Inhibition of SE/CYP51 in Candida albicans ATCC SC5314 assessed as eburicol level at 4 ug/ml incubated for 16 hrs by LC/MS analysis (reference value: 4.67 %); parameters: scale not given: the % may be the effect or the level left; settings: dose 4.0 µg/ml
[15] = system: Candida albicans SC5314; assay: Inhibition of SE/CYP51 in Candida albicans ATCC SC5314 assessed as squalene level at 4 ug/ml incubated for 16 hrs by LC/MS analysis (reference value: 2.25 %); parameters: scale not given: the % may be the effect or the level left; settings: dose 4.0 µg/ml
[16] = system: Candida albicans SC5314; assay: Inhibition of SE/CYP51 in Candida albicans ATCC SC5314 assessed as unidentified sterol level at 4 ug/ml incubated for 16 hrs by LC/MS analysis (reference value: 7.03 %); parameters: scale not given: the % may be the effect or the level left; settings: dose 4.0 µg/ml
[17] = Stability in human plasma incubated for 60 mins; format: ADME, cell-free; settings: read-out: Stabilty
[18] = Stability in human plasma incubated for 120 mins; format: ADME, cell-free; settings: read-out: Stabilty
[19] = system: Candida albicans; assay: In vivo antifungal activity against Candida albicans infected in mouse assessed as reduction in tissue infection injected via abdomen for 7 days by H and E staining based histological analysis; format: functional, organism-based; settings: time 7.0 day
[20] = system: Candida albicans; assay: In vivo antifungal activity against Candida albicans infected in mouse assessed as uniform cell distribution injected via abdomen for 7 days by H and E staining based histological analysis; format: functional, organism-based; settings: time 7.0 day
[21] = system: Candida albicans; assay: In vivo antifungal activity against Candida albicans infected in mouse assessed as disappearance of infected positions injected via abdomen for 7 days by H and E staining based histological analysis; format: functional, organism-based; settings: time 7.0 day
[22] = system: Candida albicans; assay: In vivo antifungal activity against Candida albicans infected in mouse assessed as disappearance of cell nuclear aggregation injected via abdomen for 7 days by H and E staining based histological analysis; format: functional, organism-based; settings: time 7.0 day
[23] = Toxicity in mouse infected with Candida albicans assessed as change in body weight administered via abdomen for 7 days; settings: in vivo, ip, 168 h, time 7 day
[24] = Toxicity in mouse infected with Candida albicans assessed as change in heart morphology administered via abdomen for 7 days by H and E staining based histological analysis; settings: in vivo, ip, 168 h, time 7 day
[25] = Toxicity in mouse infected with Candida albicans assessed as change in liver morphology administered via abdomen for 7 days by H and E staining based histological analysis; settings: in vivo, ip, 168 h, time 7 day
[26] = Toxicity in mouse infected with Candida albicans assessed as change in spleen morphology administered via abdomen for 7 days by H and E staining based histological analysis; settings: in vivo, ip, 168 h, time 7 day
[27] = Toxicity in mouse infected with Candida albicans assessed as change in kidney morphology administered via abdomen for 7 days by H and E staining based histological analysis; settings: in vivo, ip, 168 h, time 7 day
[28] = Toxicity in mouse infected with Candida albicans assessed as change in lung morphology administered via abdomen for 7 days by H and E staining based histological analysis; settings: in vivo, ip, 168 h, time 7 day
[29] = Hepatotoxicity in mouse infected with Candida albicans assessed as aspartate aminotransferase level in plasma administered via abdomen for 7 days (reference value: 109.4 +/-4.8 IU/L); format: toxicity; settings: ip, 168 h, time 7 day
[30] = Hepatotoxicity in mouse infected with Candida albicans assessed as effect on alanine aminotransferase level in plasma administered via abdomen for 7 days (reference value: 102 +/-9.2 IU/L); format: toxicity; settings: ip, 168 h, time 7 day
[31] = Renal toxicity in mouse infected with Candida albicans assessed as effect on blood urea nitrogen level administered via abdomen for 7 days (reference value: 6.7 +/-0.3 mmol/L); settings: in vivo, ip, 168 h, time 7 day

Compound: CN(CC(=O)NCc1ccncc1)C(=O)/C=C/c1ccc2c(c1)OCCO2
MIC [1]: 0.5 µg/mL | MIC [2]: 1 µg/mL | MIC [3]: 1 µg/mL | MIC [4]: > 16 µg/mL | MIC [5]: 0.5 µg/mL

Compound: O=C(/C=C/c1cccc2ccccc12)NC(Cn1ccnc1)C(=O)Nc1ccccc1 (configuration not stated)
MIC [1]: 0.125 µg/mL | MIC [2]: 0.25 µg/mL | MIC [3]: 0.125 µg/mL | MIC [4]: 4 µg/mL | MIC [5]: 0.25 µg/mL | MIC [6]: 4 µg/mL | MIC [7]: 8 µg/mL | MIC [8]: 8 µg/mL | MIC [9]: 8 µg/mL | MIC [10]: > 16 µg/mL | Activity [11]: Active | Activity [12]: 10.7% | Activity [13]: 14.5% | Activity [14]: 40.1% | Activity [15]: 29.1% | Activity [16]: 5.46% | remaining at 1 h [17]: 89.7% | remaining at 2 h [18]: 84.1% | Activity [19]: Active | Activity [20]: Active | Activity [21]: Active | Activity [22]: Active | Activity [23]: Non-Toxic | Activity [24]: Non-Toxic | Activity [25]: Non-Toxic | Activity [26]: Non-Toxic | Activity [27]: Non-Toxic | Activity [28]: Non-Toxic | Activity [29]: 101.5 IU/L | Activity [30]: 105 IU/L | Activity [31]: 6.9 mmol/L

Compound: CN(CC(=O)NCc1cccnc1)C(=O)/C=C/c1ccc2c(c1)OCCO2
MIC [1]: 2 µg/mL | MIC [2]: 4 µg/mL | MIC [3]: 0.5 µg/mL | MIC [4]: > 16 µg/mL | MIC [5]: 0.5 µg/mL

Compound: O=C(NCc1ccncc1)C(=O)N/N=C/c1ccc2c(c1)OCCO2
MIC [1]: 0.5 µg/mL | MIC [2]: 0.5 µg/mL | MIC [3]: 1 µg/mL | MIC [4]: 8 µg/mL | MIC [5]: 1 µg/mL

Compound: CN(CC(=O)NCc1ccncc1)C(=O)/C=C/c1ccc2ccccc2c1
MIC [1]: 0.25 µg/mL | MIC [2]: 0.25 µg/mL | MIC [3]: 0.125 µg/mL | MIC [4]: 8 µg/mL | MIC [5]: 0.25 µg/mL | MIC [6]: > 16 µg/mL | MIC [7]: 8 µg/mL | MIC [8]: 8 µg/mL | MIC [9]: > 16 µg/mL | MIC [10]: > 16 µg/mL

Compound: CN(C/C=C/c1ccccc1)Cc1cccc2ccccc12 [NAFTIFINE]
MIC [1]: 0.5 µg/mL | MIC [2]: 0.5 µg/mL | MIC [3]: 1 µg/mL | MIC [4]: 4 µg/mL | MIC [5]: 2 µg/mL | MIC [6]: 8 µg/mL | MIC [7]: > 16 µg/mL | MIC [8]: 8 µg/mL | MIC [9]: > 16 µg/mL | MIC [10]: 8 µg/mL | Activity [11]: Active

Further lines, results first:

MIC [1]: 2 µg/mL | MIC [2]: 4 µg/mL | MIC [3]: 0.5 µg/mL | MIC [4]: 8 µg/mL | MIC [5]: 0.5 µg/mL
Compound: O=C(/C=C/c1ccc2ccccc2c1)NC(Cn1ccnc1)C(=O)NCc1ccccc1 (configuration not stated)

MIC [1]: 0.5 µg/mL | MIC [2]: 0.5 µg/mL | MIC [3]: 1 µg/mL | MIC [4]: > 16 µg/mL | MIC [5]: 1 µg/mL
Compound: CN(CC(=O)NCc1cccnc1)C(=O)/C=C/c1ccc2ccccc2c1

MIC [1]: 0.5 µg/mL | MIC [2]: 1 µg/mL | MIC [3]: 1 µg/mL | MIC [4]: 8 µg/mL | MIC [5]: 0.5 µg/mL
Compound: O=C(/C=C/c1cccc2ccccc12)NCC(=O)NCc1cccnc1

MIC [1]: 0.5 µg/mL | MIC [2]: 2 µg/mL | MIC [3]: 0.5 µg/mL | MIC [4]: > 16 µg/mL | MIC [5]: 0.5 µg/mL
Compound: O=C(/C=C/c1cccc2ccccc12)NC(Cn1ccnc1)C(=O)NCc1ccccc1 (configuration not stated)

MIC [1]: 2 µg/mL | MIC [2]: 4 µg/mL | MIC [3]: 4 µg/mL | MIC [4]: > 16 µg/mL | MIC [5]: 2 µg/mL
Compound: O=C(/C=C/c1ccc2c(c1)OCCO2)NCC(=O)NCc1cccnc1

MIC [1]: 0.5 µg/mL | MIC [2]: 0.5 µg/mL | MIC [3]: 0.5 µg/mL | MIC [4]: > 16 µg/mL | MIC [5]: 1 µg/mL
Compound: O=C(/C=C/c1ccc2c(c1)OCCO2)NCC(=O)NCc1ccncc1

MIC [1]: 0.25 µg/mL | MIC [2]: 1 µg/mL | MIC [3]: 0.5 µg/mL | MIC [4]: > 16 µg/mL | MIC [5]: 0.25 µg/mL
Compound: O=C(/C=C/c1ccc2ccccc2c1)NCC(=O)NCc1ccncc1
